# In US20210353579A1, “HIGH PENETRATION COMPOSITIONS AND USES THEREOF” (Techfields Pharma Co., Ltd., priority 2006, published 2021):
# Experiments:
# [1] = tested on: rats (SLAC/GK, type 2 diabetes); assay: Blood glucose in type 2 diabetes rats, oral with food; type: in vivo, rat
# How it was run: (§1)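 Compounds (dosed equivalent to 20 mg/kg of NSAIAs) mixed in food and given orally daily for 5 weeks to rats (n=7). Non-fasting blood glucose measured every 3 days at 3 pm from week 2 to week 5; blood lipids measured at end of week 5.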
# [2] = tested on: rats (SLAC/GK, type 2 diabetes); assay: Blood lipid in type 2 diabetes rats, transdermal; type: in vivo, rat
# How it was run: (§2)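 GK type 2 diabetic rats (n=7) received the HPPs transdermally on a shaved ~1.5 cm^2 area of the back, at a dose equal to 20 mg/kg of NSAIAs, once daily for 5 weeks. Non-fasting blood glucose was measured every 3 days at 3 pm from week 2 to week 5, and blood lipids at the end of week 5.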
# [3] = tested on: Human colon cancer cells (LS174J); assay: Human colon cancer xenograft in nude mice, topical; details: day 30, about 30 μl of 5% solution (1.5 mg) topically applied
# Description: Human colon cancer cells (LS174J, 2-3 mm^3 of tumor tissue was used in each mouse) are subcutaneously xenografted into the front leg of nude mice (BALB).
# [4] = tested on: rats (SLAC/GK, type 2 diabetes); assay: Blood glucose in type 2 diabetes rats, transdermal; type: in vivo, rat; details: diabetic rats (SLAC/GK)
# How it was run: as §2
# normal rats = assay: Blood glucose in normal rats, transdermal; type: in vivo, rat
# How it was run: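 Compounds equivalent to 20 mg/kg NSAIA were applied transdermally to a shaved ~1.5 cm^2 area of rat backs once daily at 8 am for 5 weeks (n=7). Non-fasting blood glucose was measured every 3 days at 3 pm from week 2 to week 5, and blood lipids at the end of week 5.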
# [5] = tested on: rats (SLAC/GK, type 2 diabetes); assay: Blood lipid in type 2 diabetes rats, oral with food; type: in vivo, rat
# How it was run: as §1
# Chinese white rabbits = assay: Autologous blood clot pulmonary embolization, thrombus propagation; type: in vivo, rabbit; details: 20 mg/kg topically, after 2 days
# Experimental: Eighteen Chinese White rabbits weighing between 3.0 and 3.5 kg (aged 6-7 months) were selected and divided into three groups (control, P-1 and […] groups, n=6). One hour before the experiment, thrombi were made by aspirating venous blood (1 ml) into a sterilized bottle to clot. To avoid fragmentation and slow lysis, the autologous blood clots were stabilized in temperature-controlled (70° C.) distilled water for 10 min. After anesthesia, the femoral veins were exposed and distally isolated, and autologous blood clots (0.05 g/kg) were injected through an indwelling catheter (20 GA), which had been placed in the femoral vein isolated earlier. 50% acetone solution of diethylaminoethyl acetylsalicylate.acetylsalicylic acid salt (P-1, in acetone, 20 mg/kg) and diethylaminoethyl acetylsalicylsalicylate. acetylsalicylsalicylic acid salt (P-59, 20 mg/kg) were topically applied to the back of the rabbits. After 2 days, rabbits were euthanized with an excessive intravenous injection of sodium amobarbital (60 mg/kg). The lungs and hearts were isolated to observe whether thrombi were present in the pulmonary arteries. The lungs were immersed in 10% formalin for 24 h. Consecutive transverse sections along the obstructed pulmonary arteries were paraffin-embedded and stained with hematoxylin-eosine. […]
# [6] = baseline, equal to 20 mg/kg of NSAIAs
# [7] = end of the fifth week, equal to 20 mg/kg of NSAIAs once per day
# [8] = end of the fifth week, equal to 20 mg/kg of NSAIAs every day
smiles,measurement,setting,value
"CC(=O)Oc1ccccc1C(=O)O.CCN(CC)CCOC(=O)c1ccccc1OC(C)=O [P-1, diethylaminoethyl acetylsalicylate.acetylsalicylic acid salt]","Blood glucose, Diabetic rats, Average","[1]; average second to fifth week, no fasting, equal to 20 mg/kg of NSAIAs every day for 5 weeks",6.5 ± 1 mmol/L
same,"Blood glucose, Diabetic rats, Baseline",[1]; [6],16.5 ± 3 mmol/L
same,"Cholesterol (HDL), Baseline",[2]; [6],1.4 ± 0.2 mmol/L
same,"Cholesterol (total), Baseline",[2]; [6],7.7 ± 0.4 mmol/L
same,"Triglycerides, Baseline",[2]; [6],5.4 ± 0.5 mmol/L
same,"Cholesterol (HDL), Average",[2]; [7],1.5 ± 0.2 mmol/L
same,"Cholesterol (total), Average",[2]; [7],4.0 ± 0.3 mmol/L
same,"Triglycerides, Average",[2]; [7],1.5 ± 0.2 mmol/L
same,Tumor size,[3],420 ± 100 mm^3
same,"Blood glucose, Average","[4]; average second to fifth week, no fasting, equal to 20 mg/kg of NSAIAs once per day for 5 weeks",6.5 ± 1 mmol/L
same,"Blood glucose, Baseline","[4]; baseline, equal to 20 mg/kg of NSAIAs once per day",16.1 ± 3 mmol/L
same,"Blood glucose, Average","normal rats; normal rats (second Average line of Table 24), average second to fifth week, equal to 20 mg/kg of NSAIAs once per day",6.3 ± 1 mmol/L
same,"Blood glucose, Baseline","normal rats; normal rats (second Baseline line of Table 24), baseline, equal to 20 mg/kg of NSAIAs",6.4 ± 1 mmol/L
same,"Cholesterol (HDL), Baseline",[5]; [6],1.5 ± 0.2 mmol/L
same,"Cholesterol (total), Baseline",[5]; [6],7.6 ± 0.4 mmol/L
same,"Triglycerides, Baseline",[5]; [6],5.7 ± 0.5 mmol/L
same,"Cholesterol (HDL), Average",[5]; [8],1.6 ± 0.2 mmol/L
same,"Cholesterol (total), Average",[5]; [8],4.1 ± 0.3 mmol/L
same,"Triglycerides, Average",[5]; [8],1.4 ± 0.2 mmol/L
same,lung tissue and vascular walls (thrombus propagation),Chinese white rabbits,both lung tissue and vascular walls were normal
